Measured values as given in patent US20080318269A1, “Devices and Methods for the Analysis of Biofilm” (priority 2005, published 2008).
“Also recorded” adds a separate entry of the source. Read-outs that look alike come from different tables or passages of the source.

What was measured:
Candida biofilms = assay: Minimum biofilm eradication concentration assay, Candida spp.; format: cell-based; conditions: sessile (biofilm) Candida
Protocol: (§1) Biofilm formation and measurement of antimicrobial sensitivity of Candida and Aspergillus biofilms were performed using an assembly of the present invention. The device features a microtliter plate lid with 96 pegs or projections distributed on the lid. Each peg provided the surface for microorganism to adhere, colonize and form a uniform biofilm. The pegs fit precisely into the wells of a standard 96-well microtiter plate. The lid was used in conjunction with a base having special troughs for growing, washing, and incubating fungi. Colonies of Candida sp. were picked from 24 hour cultures on Sabouraud Dextrose agar (SDA) (BBL Microbiological Systems, Cockeysville, Md.) and placed into Mueller-Hinton Broth (MHB) (Difco Laboratories, Detroit Mich.) such that the suspension matched a McFarland standard of 1.0. This suspension was then diluted 1:30 in MHB, and 25 ml were pipetted into the trough chamber of the base. The closed assembly (lid with pegs positioned on the base) was placed on a Hoeffer Red Rocker (VWR, Scientific) set to rock the plates 3.5 cycles per minute in a 37° C. incubator. C. albicans and C. tropicalis were incubated aerobically, while C. glabrata was incubated in 10% CO2. It was determined in preliminary experiments that C. glabrata required 10% CO2 atmosphere for biofilms to form.
(§2) Biofilm susceptibility testing uses the pegged lid of the assembly, now containing biofilms formed after rocking in the tray for 24 hour. Each peg on the lid was gently washed once in […] of phosphate buffered saline solution (PBSS) in a 96-well microtiter plate (Falcon). The pegged lid was then transferred to another 96 well microtiter plate containing 2 fold dilutions antifungal agent in 200 μl of RPMI 1640 (Sigma, St. Louis, Mo.) or RPMI 1640 containing 1% DMSO (see test drug section). After the pegs were exposed to the drugs for 24 hours, the pegged lid was removed and gently rinsed twice in saline. The pegged lid was then placed on a 96 well plate containing RPMI 1640 recovery medium. The pegs were sonicated for 5 minutes (Candida spp.) or 7 minutes (Aspergillus) in an ultrasonicator to dislodge adherent cells into the recovery medium. Aliquots of 20 μl of the recovery medium were spot plated on SDA (Candida spp) or Rose Bengal Agar (A. fumigatus) to obtain the MBEC. The assembly was also used to determine the minimum inhibitory concentration (MIC) and minimum fungicidal concentration (MFC). The turbidity of the wells that contained the antibiotic and planktonic cells which were shed from the biofilm was measured at […] to obtain the MIC. A 20 μl sample from each well was also spot plated onto Sabouraud Dextrose agar (Candida spp) or Rose Bengal Agar (A. fumigatus) to obtain the MFC.
Drugs tested. […]

[1] = tested on: planktonic cultures of C. albicans; assay: Planktonic sensitivity (MIC, MFC) of C. albicans to antifungal agents; format: cell-based, Candida albicans
Protocol: as §2
Minimum Inhibitory Concentrations (MIC) and Minimum Fungicidal Concentrations (MFC) were determined according to the guidelines of the National Committee for Clinical laboratory Standards (NCCLS). Briefly, Candida sp. were maintained on polystyrene spheres at −70° C. until plating. […]
(§3) The test wells were then incubated at 37° C. for 24 hours with the antifungal drugs. MICs for Candida were obtained after incubation by reading the turbidity at 650 nm on a microtiter plate reader (Softmax, VWR). […] MFCs were determined for Aspergillus by plating 100 μl from each well onto Rose Bengal Agar, followed by spreading with a sterile glass spreader. […]

[2] = tested on: biofilm cells of C. albicans; assay: Minimum biofilm eradication concentration assay, C. albicans; format: cell-based, Candida albicans; conditions: 24 hours exposure
Protocol: as §1, with “The closed assembly (lid with pegs positioned on the base) was placed on a Hoeffer Red Rocker (VWR, Scientific) set to rock the plates 3.5 cycles per minute in a 37° C. incubator. C. albicans and C. tropicalis were incubated aerobically, while C. glabrata was incubated in 10% CO2.” left out
Biofilm susceptibility testing uses the pegged lid of the assembly, now containing biofilms formed after rocking in the tray for 24 hour. […] The turbidity of the wells that contained the antibiotic and planktonic cells which were shed from the biofilm was measured at […] to obtain the MIC. […]

[3] = tested on: invasive pulmonary, sinus and cerebral aspergillosis; conditions: cited from earlier work
[4] = tested on: C. tropicalis planktonic cells; assay: Planktonic sensitivity (MIC) of C. tropicalis to antifungal agents; format: cell-based, Candida tropicalis; conditions: C. tropicalis strain tested
Protocol: Biofilm susceptibility testing uses the pegged lid of the assembly, now containing biofilms formed after rocking in the tray for 24 hour. Each peg on the lid was gently washed once in […] of phosphate buffered saline solution (PBSS) in a 96-well microtiter plate (Falcon). The pegged lid was then transferred to another 96 well microtiter plate containing 2 fold dilutions antifungal agent in 200 μl of RPMI 1640 (Sigma, St. Louis, Mo.) or RPMI 1640 containing 1% DMSO (see test drug section). After the pegs were exposed to the drugs for 24 hours, the pegged lid was removed and gently rinsed twice in saline. The pegged lid was then placed on a 96 well plate containing RPMI 1640 recovery medium. […] The turbidity of the wells that contained the antibiotic and planktonic cells which were shed from the biofilm was measured at […] to obtain the MIC. […]
Minimum Inhibitory Concentrations (MIC) and Minimum Fungicidal Concentrations (MFC) were determined according to the guidelines of the National Committee for Clinical laboratory Standards (NCCLS). […]
as §3

[5] = tested on: Pseudomonas aeruginosa (Ps) planktonic bacteria; assay: MBEC assay, Ps planktonic bacteria exposed to antibiotics and combinations (Example 5); format: cell-based; conditions: number of the 12 isolates from Cystic Fibrosis patients that are resistant; 24 hours exposure
[6] = tested on: Pseudomonas aeruginosa (Ps) biofilm; assay: MBEC assay, Ps biofilms exposed to antibiotics and combinations (Example 5); format: cell-based; conditions: number of the 12 isolates from Cystic Fibrosis patients that are resistant; 24 hours exposure
[7] = tested on: P. aeruginosa planktonic bacteria shed from the biofilm; assay: P. aeruginosa biofilm assay kit, planktonic MIC read on challenge plate (Example 8); format: cell-based, Pseudomonas aeruginosa; conditions: challenge 35° C. for 24 hours; breakpoint concentrations
P. aeruginosa biofilm = P. aeruginosa biofilm assay kit, biofilm MBEC read on recovery plate (Example 8); format: cell-based, Pseudomonas aeruginosa; conditions: challenge 35° C. for 24 hours; recovery 20 to 24 hours; breakpoint concentrations
[8] = tested on: Staphylococcus aureus biofilm; assay: Staphylococcus test plate, biofilm sensitivity (Example 9); format: cell-based; conditions: figure in the label = antibiotic concentration, breakpoint concentrations
[9] = tested on: Staphylococcus aureus planktonic forms; assay: Staphylococcus test plate, planktonic sensitivity (Example 9); format: cell-based; conditions: figure in the label = antibiotic concentration, breakpoint concentrations
[10] = tested on: Staphylococcus aureus (Staph) planktonic bacteria; assay: MBEC assay, Staph planktonic bacteria exposed to antibiotics and combinations (Example 5); format: cell-based; conditions: number of the 12 isolates from device associated infections that are resistant; 24 hours exposure
[11] = tested on: Staphylococcus aureus (Staph) biofilm; assay: MBEC assay, Staph biofilms exposed to antibiotics and combinations (Example 5); format: cell-based; conditions: number of the 12 isolates from device associated infections that are resistant; 24 hours exposure
[12] = planktonic cultures of C. albicans, 24 hours

COC1=CC(=O)C[C@@H](C)[C@]12Oc1c(Cl)c(OC)cc(OC)c1C2=O [Griseofulvin]
effectiveness against Candida growing as a biofilm (Candida biofilms): ineffective

C[C@@H]1[C@H](O)[C@@H](C)/C=C/C=C/C=C/C=C/C=C/C=C/C=C/[C@H](O[C@@H]2O[C@H](C)[C@@H](O)[C@H](N)[C@@H]2O)C[C@@H]2O[C@](O)(C[C@@H](O)C[C@@H](O)[C@H](O)CC[C@@H](O)C[C@@H](O)CC(=O)O[C@H]1C)C[C@H](O)[C@H]2C(=O)O [amphotericin B, Amphotericin B]
average MFC [1, 12]: 0.02 µg/mL | average MIC [1, 12]: 0.09 µg/mL | average concentration required to kill biofilm cells (MBEC) [2]: 12 µg/mL | crude mortality rate of treated patients ([3]; invasive cerebral aspergillosis): 99% | crude mortality rate of treated patients ([3]; invasive pulmonary aspergillosis): 86% | crude mortality rate of treated patients ([3]; invasive sinus aspergillosis): 66% | effectiveness against Candida growing as a biofilm (Candida biofilms): most effective

OC(Cn1cncn1)(Cn1cncn1)c1ccc(F)cc1F [fluconazole, Fluconazole]
classification by MIC criterion (MIC less than or equal to 8 μg/ml = susceptible) ([1]; C. albicans strain tested, planktonic): susceptible | classification by MIC criterion (MIC less than or equal to 8 μg/ml = susceptible) [4]: susceptible

C[C@@H]1[C@H](O)[C@@H](C)/C=C/C=C/CC/C=C/C=C/C=C/C=C/C(O[C@H]2O[C@H](C)[C@@H](O)[C@H](N)[C@@H]2O)CC2O[C@](O)(CC(O)C(O)CCC(O)CC(O)CC(O)CC(=O)O[C@H]1C)CC(O)C2C(=O)O (some centres unmarked) [nystatin, Nystatin]
effectiveness against Candida growing as a biofilm (Candida biofilms): effective; also recorded: most effective

Colistin [CLO]
Ps resistance to individual antibiotics and antibiotic combinations, Planktonic [5]: 2 | Ps resistance to individual antibiotics and antibiotic combinations, Biofilm [6]: 12 | Number of P. aeruginosa isolates resistant to individual antibiotics and antibiotic combinations, Planktonic [7]: 2 | Number of P. aeruginosa isolates resistant to individual antibiotics and antibiotic combinations, Biofilm (P. aeruginosa biofilm): 12

Polymyxin B
effectiveness against Candida growing as a biofilm (Candida biofilms): ineffective

gentamicin [GM]
Ps resistance to individual antibiotics and antibiotic combinations, Planktonic [5]: 8 | Number of Staphylococcus aureus isolates resistant to individual antibiotics and antibiotic combinations, Biofilm ([8]; listed as GM2): 11 | Number of Staphylococcus aureus isolates resistant to individual antibiotics and antibiotic combinations, Biofilm ([8]; listed as GM4): 10 | Ps resistance to individual antibiotics and antibiotic combinations, Biofilm [6]: 12 | Number of Staphylococcus aureus isolates resistant to individual antibiotics and antibiotic combinations, Planktonic ([9]; listed as GM2): 4 | Number of Staphylococcus aureus isolates resistant to individual antibiotics and antibiotic combinations, Planktonic ([9]; listed as GM4): 3 | Number of P. aeruginosa isolates resistant to individual antibiotics and antibiotic combinations, Planktonic [7]: 8 | Staph resistance to individual antibiotics and antibiotic combinations, Planktonic [10]: 6 | Staph resistance to individual antibiotics and antibiotic combinations, Biofilm [11]: 10 | Number of P. aeruginosa isolates resistant to individual antibiotics and antibiotic combinations, Biofilm (P. aeruginosa biofilm): 12
